Results: patent publication US20250152547A1, “COMPOSITIONS FOR DELIVERY OF LADOSTIGIL” (priority 2019, published 2025)

How the values were obtained:
[1] = Concentration of ladostigil in brain (cortex) of rats after oral or rectal administration (LC-MS/MS); type: in vivo; conditions: male, Wistar, rat, read-out: Concentration of ladostigil in brain (cortex), mean ± STD (coefficient of variation)
[2] = as above; type: in vivo; conditions: male, Wistar, rat, read-out: Concentration of ladostigil in brain (cortex), mean ± STD (coefficient of variation); remark: listed apart in the source
Method: (§1) Methods: Male Wister rats weighing 250-270g were used for these experiments. Ladostigil was administered by gavage at a dose of 5 mg/kg (volume 0.25-0.27ml). In other rats, the same dose of ladostigil was administered via a cannula gently inserted into the rectum and pushed forward to reach the colon. The rats were anesthetized with isofluorane and sacrificed by decapitation at 0, 15, 30, 60 or 120 min after ladostigil administration. The brain was removed, and the cortex carefully dissected and stored at-80° C. until further analysis. Blood was collected in heparinized Eppendorf tubes, centrifuged at 4° C., 20,800 g for 10 min and the plasma was stored at −80° C. until further analysis.
(§2) Samples were prepared for LC-MS analysis after precipitating the proteins in plasma and cortical extracts with methanol as described in Moradov et al. (2015). Briefly, rivastigmine 750 ng/ml (internal standard) was added to 50 μl of plasma or supernatant after brain homogenization and ladostigil was extracted with HPLC grade MeOH. 75 μl of double distilled water (DDW) was added to 150 μl of the supernatant to give a final ratio of DDW:MeOH 1:1. The samples were filtered through […] GHP membranes and injected into the LC-MS machine. LC-MS/MS analysis was also performed as described in Moradov et al. (2015).
(§3) Ladostigil and rivastigmine were detected by an AB Sciex (Framingham, MA, USA) Triple Quad™ 5500 mass spectrometer in positive ion mode by electrospray ionization (ESI) and a multiple reaction monitoring (MRM) mode of acquisition. Data acquisition and analysis were performed on a Dell Optiplex 960 computer with Analyst 1.6.2 software distributed by AB Sciex. Quantitative calibration (0-100 ng/ml) was performed before every batch of samples. The calibration curve (y=a+bx) was obtained by linear least-squares regression of the measured peak area (y) versus the concentration added to the biological matrix (x). The limit of quantification (LOQ) of ladostigil in plasma and cortex was 50 pg/ml.

[3] = Concentration of ladostigil in plasma of human subjects after a single oral dose (LC/MS/MS); type: in vivo, humans; conditions: read-out: Concentration of ladostigil in plasma, mean ± STD (coefficient of variation)
[4] = Blood levels of ladostigil after oral administration, detection time and inter subject variability; type: in vivo, humans and rodent species
Method: Ladostigil is well absorbed from the gastro intestinal tract and can be detected in the blood within 15 minutes after oral administration in humans and rodent species. However, the inter subject variability in these blood levels at peak times after administration is very high with coefficients of variation of more than 100% irrespective of the dose administered. (Table 1). This is undesirable and could exacerbate any variability in the response to treatment by ladostigil of potential patients. The wide inter individual variation in blood levels may explain why the therapeutic effect of the drug in the clinical trial was not more pronounced.

[5] = Concentration of ladostigil in plasma of rats after oral or rectal administration (LC-MS/MS); type: in vivo; conditions: rat
Method: as §1, with “Ladostigil was administered by gavage at a dose of 5 mg/kg (volume 0.25-0.27ml).” left out, “The rats were anesthetized with isofluorane and sacrificed by decapitation at 0, 15, 30, 60 or 120 min after ladostigil administration.” left out
as §2, §3

[6] = oral administration (gavage) 5 mg/kg
[7] = other: rectal administration, rectal administration 5 mg/kg
[8] = normal healthy subjects aged 18-40, single oral dose 50 mg
[9] = normal healthy subjects aged 18-40, single oral dose 100 mg

## C#CCN[C@@H]1CCc2ccc(OC(=O)N(C)CC)cc21 [ladostigil, 6-(N-ethyl, N-methyl, carbamyloxy)-N propargyl-1(R)-aminoindan, tartarate]
[1]; [6]
  concentration at 180 min: 2.9 ng/g
[1]; [7]
  concentration at 180 min: 2.8 ng/g
[2]; [6]
  concentration at 15 min: 17.9 ng/g
  concentration at 30 min: 9.3 ng/g
  concentration at 60 min: 6.7 ng/g
  concentration at 120 min: 4.9 ng/g
[2]; [7]
  concentration at 15 min: 14.3 ng/g
  concentration at 30 min: 11.9 ng/g
  concentration at 60 min: 9.3 ng/g
  concentration at 120 min: 7.4 ng/g
[3]; [8]
  concentration at 15 min: 3.74 ng/mL
  concentration at 30 min: 18 ng/mL
  concentration at 60 min: 8.29 ng/mL
  concentration at 120 min: 2.88 ng/mL
[3]; [9]
  concentration at 15 min: 9.3 ng/mL
  concentration at 30 min: 34.8 ng/mL
  concentration at 60 min: 97.6 ng/mL
  concentration at 120 min: 44.4 ng/mL
[3]; normal healthy subjects aged 18-40, single oral dose 100 mg, 180 min
  concentration at 180 min: 15.3 ng/mL
[4]; at peak times after oral administration, irrespective of the dose
  Coefficient of variation of blood levels (inter subject variability): more than 100%
[4]; oral administration, humans and rodent species
  Time after which ladostigil can be detected in the blood: ≤ 15 min
[5]; male, Wistar, other: rectal administration, rats, rectal administration 5 mg/kg, 15 min, read-out: Concentration of ladostigil in plasma, mean ± STD (coefficient of variation)
  concentration at 15 min: 60.6 ng/mL
[5]; male, Wistar, other: rectal administration, rats, rectal administration 5 mg/kg, 30 min, read-out: Concentration of ladostigil in plasma, mean ± STD (coefficient of variation)
  concentration at 30 min: 47.2 ng/mL
[5]; male, Wistar, other: rectal administration, rats, rectal administration 5 mg/kg, 60 min, * significantly higher than after oral treatment p < 0.05, read-out: Concentration of ladostigil in plasma, mean ± STD (coefficient of variation)
  concentration at 60 min: 33.7 ng/mL
[5]; male, Wistar, other: rectal administration, rats, rectal administration 5 mg/kg, 120 min, * significantly higher than after oral treatment p < 0.05, read-out: Concentration of ladostigil in plasma, mean ± STD (coefficient of variation)
  concentration at 120 min: 14.1 ng/mL
[5]; male, Wistar, other: rectal administration, rats, rectal administration 5 mg/kg, 180 min, * significantly higher than after oral treatment p < 0.05, read-out: Concentration of ladostigil in plasma, mean ± STD (coefficient of variation)
  concentration at 180 min: 13.9 ng/mL
[5]; male, Wistar rats, single oral dose 5 mg/kg, 15 min (Table 1), read-out: Concentration of ladostigil in plasma, mean ± STD (coefficient of variation)
  concentration at 15 min: 53.7 ng/mL
[5]; male, Wistar rats, single oral dose 5 mg/kg, 30 min (Table 1), read-out: Concentration of ladostigil in plasma, mean ± STD (coefficient of variation)
  concentration at 30 min: 36.4 ng/mL
[5]; male, Wistar rats, single oral dose 5 mg/kg, 60 min (Table 1), read-out: Concentration of ladostigil in plasma, mean ± STD (coefficient of variation)
  concentration at 60 min: 8.3 ng/mL
[5]; male, Wistar rats, single oral dose 5 mg/kg, 120 min (Table 1), read-out: Concentration of ladostigil in plasma, mean ± STD (coefficient of variation)
  concentration at 120 min: 4.9 ng/mL
[5]; male, Wistar rats, single oral dose 5 mg/kg, 180 min (Table 1), read-out: Concentration of ladostigil in plasma, mean ± STD (coefficient of variation)
  concentration at 180 min: 2.4 ng/mL
[5]; Wistar rats, single oral dose 1 mg/kg, 15 min, read-out: Concentration of ladostigil in plasma, mean ± STD (coefficient of variation)
  concentration at 15 min: 18.7 ng/mL
[5]; Wistar rats, single oral dose 1 mg/kg, 30 min, read-out: Concentration of ladostigil in plasma, mean ± STD (coefficient of variation)
  concentration at 30 min: 12.3 ng/mL
[5]; Wistar rats, single oral dose 1 mg/kg, 60 min, read-out: Concentration of ladostigil in plasma, mean ± STD (coefficient of variation)
  concentration at 60 min: 6.7 ng/mL
[5]; Wistar rats, single oral dose 1 mg/kg, 120 min, read-out: Concentration of ladostigil in plasma, mean ± STD (coefficient of variation)
  concentration at 120 min: 1.6 ng/mL
